Reference: ChEMBL document CHEMBL4808216, “Gut-Restricted Selective Cyclooxygenase-2 (COX-2) Inhibitors for Chemoprevention of Colorectal Cancer” (J Med Chem, 2021)
Converted amounts (≈) assume the structure as drawn. One block for each compound: values may come before it.

What was measured:
[1] = target: T1, Prostaglandin G/H synthase 1 (Homo sapiens, UniProt P23219); experiment: Inhibition of COX1 (unknown origin) expressed in HEK293 TRex cells assessed as reduction in PGE2 production using arachidonic acid as substrate preincubated for 60 mins followed by substrate addition for 1 hr in presence of 10% FBS by RapidFire High-Throughput Mass Spectrometry; assay type: ADME, cell-based, HEK293-T-REx
T1 sequence (P23219 whole entry): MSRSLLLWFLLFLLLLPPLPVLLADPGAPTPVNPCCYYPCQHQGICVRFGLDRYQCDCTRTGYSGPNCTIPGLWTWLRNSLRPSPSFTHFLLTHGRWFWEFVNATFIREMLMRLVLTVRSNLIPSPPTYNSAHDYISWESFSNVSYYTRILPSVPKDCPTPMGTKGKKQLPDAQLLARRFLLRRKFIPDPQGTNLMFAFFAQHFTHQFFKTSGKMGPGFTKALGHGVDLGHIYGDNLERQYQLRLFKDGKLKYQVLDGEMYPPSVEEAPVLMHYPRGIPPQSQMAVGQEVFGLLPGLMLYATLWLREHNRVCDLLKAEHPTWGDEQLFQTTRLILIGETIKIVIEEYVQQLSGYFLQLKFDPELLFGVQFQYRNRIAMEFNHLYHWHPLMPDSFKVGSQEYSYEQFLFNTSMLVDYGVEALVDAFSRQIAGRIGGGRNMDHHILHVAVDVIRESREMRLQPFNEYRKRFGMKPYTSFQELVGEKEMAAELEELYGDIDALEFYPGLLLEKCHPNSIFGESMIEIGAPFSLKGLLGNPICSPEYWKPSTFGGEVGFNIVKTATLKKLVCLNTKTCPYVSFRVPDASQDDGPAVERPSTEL

[2] = target: T1, Prostaglandin G/H synthase 1; experiment: Inhibition of human recombinant COX-1 assessed as reduction in peroxidase activity using arachidonic acid as substrate preincubated for 60 mins followed by substrate addition for 2 secs by ADPH based fluorometric analysis; assay type: ADME
[3] = target: T2, Prostaglandin G/H synthase 2 (Homo sapiens, UniProt P35354); experiment: Inhibition of COX2 (unknown origin) expressed in HEK293 TRex cells assessed as reduction in PGE2 production using arachidonic acid as substrate preincubated for 60 mins followed by substrate addition for 1 hr in presence of 10% FBS by RapidFire High-Throughput Mass Spectrometry; assay type: cell-based, HEK293-T-REx
T2 sequence (P35354 whole entry): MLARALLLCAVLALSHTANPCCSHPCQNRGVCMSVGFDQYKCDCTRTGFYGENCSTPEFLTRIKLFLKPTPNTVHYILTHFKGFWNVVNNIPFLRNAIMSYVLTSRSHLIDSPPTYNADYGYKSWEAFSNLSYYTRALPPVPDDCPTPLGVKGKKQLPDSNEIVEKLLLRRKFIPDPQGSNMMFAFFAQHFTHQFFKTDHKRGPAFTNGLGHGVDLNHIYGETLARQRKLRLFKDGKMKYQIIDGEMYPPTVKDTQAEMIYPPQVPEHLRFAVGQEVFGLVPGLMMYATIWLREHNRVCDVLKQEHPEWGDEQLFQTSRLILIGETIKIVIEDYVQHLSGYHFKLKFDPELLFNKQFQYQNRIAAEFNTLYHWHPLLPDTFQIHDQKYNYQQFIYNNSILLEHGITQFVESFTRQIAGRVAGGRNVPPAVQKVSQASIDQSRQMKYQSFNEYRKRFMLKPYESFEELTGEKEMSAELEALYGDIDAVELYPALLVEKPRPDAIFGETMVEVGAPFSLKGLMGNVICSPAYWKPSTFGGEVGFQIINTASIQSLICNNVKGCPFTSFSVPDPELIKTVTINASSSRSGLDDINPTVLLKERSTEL

[4] = target: T2, Prostaglandin G/H synthase 2; experiment: Inhibition of human recombinant COX-2 assessed as reduction in peroxidase activity using arachidonic acid as substrate preincubated for 60 mins followed by substrate addition for 2 secs by ADPH based fluorometric analysis
[5] = Drug concentration in C57BL/6J mouse colon at 10 mg/kg, po administered as cassette dose measured at 4 hrs by LC/MS/MS analysis; assay type: ADME, organism-based; details: read-out: Ct
[6] = Clearance in C57BL/6J mouse at 2 mg/kg, iv measured after 0.08 to 24 hrs; assay type: ADME, organism-based; details: in vivo, time 0.08-24 hrs
[7] = Drug concentration in C57BL/6J mouse plasma at 10 mg/kg, po administered as cassette dose measured at 4 hrs by LC/MS/MS analysis; assay type: ADME, organism-based
[8] = Ratio of drug concentration in C57BL/6J mouse colon to plasma at 10 mg/kg, po measured after 4 hr by liquid chromatographic triple-quadrupole mass spectrometric method; assay type: ADME, organism-based; details: for Ratio: other tissue, 10 mg/kg, 4 h; for Kp at 4 h: C57BL/6J, colon / plasma
[9] = target: T2, Prostaglandin G/H synthase 2; experiment: Inhibition of COX2 in human whole blood assessed as reduction in LPS stimulated PGE2 production incubated for 1 hr by ELISA; assay type: tissue-based
[10] = target: T3, Prostaglandin G/H synthase 2 (Homo sapiens) (UniProt P35354)
T3 sequence (whole entry): T2 sequence (P35354 whole entry)
Description: Protein occupancy at human recombinant COX-2 assessed as dissociation half life

[11] = Equilibrium solubility of compound in FASSIF at pH 6.5; assay type: physicochemical
[12] = target: T2, Prostaglandin G/H synthase 2; experiment: Inhibition of human recombinant COX-2 using arachidonic acid as substrate preincubated for 60 mins followed by substrate addition for 2 secs by ADPH based fluorometric analysis
[13] = Drug concentration in C57BL/6J mouse portal vein plasma at 10 mg/kg, po administered as cassette dose measured at 4 hrs by LC/MS/MS analysis; assay type: ADME, organism-based
[14] = system: Mus musculus; experiment: Chemo-protective activity in C57BL/6J mouse model of spontaneous GI-tract tumor Apc-min assessed as 18F-FDG uptake in ileum at 300 mg/kg, po incorporated into chow diet administered daily for 2 weeks and measured after 14 days by ex vivo PET imaging analysis relative to control; assay type: functional
[15] = Protein binding in human plasma assessed as unbound fraction; assay type: ADME, cell-free
[16] = system: Mus musculus; experiment: Antitumor activity in C57BL/6J mouse model of spontaneous GI-tract tumor Apc-min assessed as reduction in total ileum polyp area at 300 mg/kg, po administered as suspension for 10 to 12 weeks; assay type: functional; details: time 10-12 weeks, read-out: TGI
[17] = target: T1, Prostaglandin G/H synthase 1; experiment: Inhibition of COX1 in human whole blood assessed as reduction in calcium ionophore-stimulated TXB2 production incubated for 1 hr by ELISA; assay type: tissue-based
[18] = Protein binding in human colon assessed as unbound fraction; assay type: ADME, tissue-based
[19] = Half life in human hepatocytes; assay type: ADME, cell-based, Hepatocyte
[20] = Half life in human liver microsomes; assay type: ADME, Microsome
[21] = Volume of distribution at steady state in C57BL/6J mouse at 2 mg/kg, iv measured after 0.08 to 24 hrs; assay type: ADME, organism-based; details: C57BL/6J, in vivo, time 0.08-24 hrs, read-out: Vdss
[22] = Half life in C57BL/6J mouse at 2 mg/kg, iv measured after 0.08 to 24 hrs; assay type: ADME, organism-based; details: C57BL/6J, in vivo, time 0.08-24 hrs
[23] = Half life in mouse liver microsomes; assay type: ADME, Microsome
[24] = system: Mus musculus; experiment: Antitumor activity in C57BL/6J mouse model of spontaneous GI-tract tumor Apc-min assessed as mouse survival at 100 mg/kg, po administered daily as suspension and measured at day 82 by Kaplan-Meier method; assay type: functional
[25] = Tmax in C57BL/6J mouse at 10 mg/kg, po administered as cassette dose measured at 4 hrs by liquid chromatographic triple-quadrupole mass spectrometric method; assay type: ADME, organism-based; details: in vivo
[26] = Half life in mouse hepatocytes; assay type: ADME, cell-based, Hepatocyte
[27] = system: HEK293; experiment: Selectivity ratio of IC50 for COX1 (unknown origin) expressed in HEK293 TRex cells assessed as reduction in PGE2 production to IC50 for COX2 (unknown origin) expressed in HEK293 TRex cells assessed as reduction in PGE2 production; assay type: cell-based; details: Homo sapiens

Compound: CC(C)(O)COc1ncc(CO)cc1-c1ccc(S(C)(=O)=O)cc1
- IC50 [1]: > 50 µM
- IC50 [2]: > 50 µM
- IC50 [3]: > 50000 nM
- IC50 [4]: > 50000 nM

Compound: CCCCOc1nc(OCC(C)(C)O)c(-c2ccc(S(C)(=O)=O)cc2)cc1C(=O)O
- IC50 [4]: > 50000 nM

Compound: CCCCOc1nc(OCC(C)(C)O)c(-c2ccc(S(N)(=O)=O)cn2)cc1CO
- IC50 [9]: 7.23 µM
- T1/2 [10]: 23 h
- solubility thermodynamic [11]: 63.1 µM (≈ 26.8 µg/mL)
- concentration at 4 h [5]: 12000 ng/g
- IC50 [1]: > 50 µM
- Ki [12]: 19 nM
- concentration at 4 h [13]: 7.1 ng/mL
- IC50 [2]: > 50 µM
- Activity [14]: 54.8%
- fraction unbound [15]: 0.002
- concentration at 4 h [7]: 5.5 ng/mL
- inhibition in vivo at 300 mg/kg [16]: 25%
- IC50 [3]: 230 nM
- IC50 [17]: > 60 µM
- Ratio [8]: 2179
- IC50 [4]: 450 nM
- fraction unbound [18]: 0.075

Compound: Cc1ccc(-c2cc(C(F)(F)F)nn2-c2ccc(S(N)(=O)=O)cc2)cc1 [CELECOXIB]
- solubility thermodynamic [11]: 134 µM (≈ 50.9 µg/mL)
- half-life [19]: 57.4 min
- half-life [20]: 67.2 min
- concentration at 4 h [5]: 9460 ng/g
- Vd [21]: 0.94 L/kg
- half-life [22]: 76.2 min
- concentration at 4 h [13]: 2150 ng/mL
- Activity [14]: 31.4%
- clearance [6]: 10.5 mL/min/kg
- Fu [15]: 0.3%
- half-life [23]: 59.3 min
- concentration at 4 h [7]: 2550 ng/mL
- inhibition in vivo at 300 mg/kg [16]: 65.9%
- Survival [24]: >82 days
- Tmax [25]: 0.25 h
- fraction unbound [18]: 0.0031
- half-life [26]: 33.1 min

Compound: CC(C)(O)COc1ncc(C(F)(F)F)cc1-c1ccc(S(C)(=O)=O)cc1
- half-life [19]: > 371 min
- half-life [20]: > 184 min
- concentration at 4 h [5]: 8400 ng/g
- IC50 [1]: > 50 µM
- Vd [21]: 1.55 L/kg
- half-life [22]: 2310 min
- IC50 [2]: > 50 µM
- clearance [6]: 0.54 mL/min/kg
- half-life [23]: > 184 min
- concentration at 4 h [7]: 9800 ng/mL
- IC50 [3]: 1500 nM
- Tmax [25]: 3 h
- Kp at 4 h [8]: 0.9
- IC50 [4]: 390 nM
- half-life [26]: > 371 min

Continued, in another order:

- IC50 [1]: > 50 µM
- IC50 [2]: > 50 µM
- IC50 [3]: > 50000 nM
- IC50 [4]: 4100 nM
Compound: CC(C)Oc1nc(OCC(C)(C)O)c(-c2ccc(S(C)(=O)=O)cc2)cc1CO

- concentration at 4 h [5]: 11900 ng/g
- IC50 [1]: > 50 µM
- clearance [6]: 68.6 mL/min/kg
- concentration at 4 h [7]: 7.7 ng/mL
- IC50 [3]: 1320 nM
- Ratio [8]: 1596
Compound: CCCCOc1nc(OCC2(O)COC2)c(-c2ccc(S(C)(=O)=O)cc2)cc1CO

- concentration at 4 h [5]: 85.8 ng/g
- IC50 [1]: > 50 µM
- clearance [6]: 58.8 mL/min/kg
- concentration at 4 h [7]: 35.8 ng/mL
- IC50 [3]: 1210 nM
- Kp at 4 h [8]: 2.5
Compound: CCCCOc1nc(OCC(C)(C)O)c(-c2ccc(S(C)(=O)=O)cc2)cc1C(C)(C)O

- concentration at 4 h [5]: 1940 ng/g
- IC50 [1]: 0.511 µM
- clearance [6]: 32.2 mL/min/kg
- concentration at 4 h [7]: 75.9 ng/mL
- IC50 [3]: 49 nM
- Kp at 4 h [8]: 24.9
Compound: CCCCOc1nc(-c2ccc(F)cc2)c(-c2ccc(S(C)(=O)=O)cc2)cc1CO
- Ratio IC50 [27]: 10
